From patent US8796244B2, “Imidazopyridine derivatives as inhibitors of receptor tyrosine kinases” (Astex Therapeutics Ltd, priority 2008, dated 2014)
Structures can show the parent of a compound that is named as a salt. Where two headings read alike, the source gives them in different places.

Tested on: parental wild-type Ba/F3 cells
Experiment: Ba/F3 (WT) cell proliferation assay (Alamar Blue)
Assay type: cell-based
Conditions: Mus musculus; for inhibition at 10 µM / inhibition at 3 µM / inhibition at 1 µM: BaF3, read-out: BaF3 WT prolif, % inhibition
[1] = BaF3, 72 h, read-out: BaF3 WT prolif (μM)
[2] = BaF3, 72 hours, Alamar Blue, read-out: BaF3 WT prolif

Structure (SMILES) | inhibition at 10 µM [%] | other results
CC(=O)c1cnc(-c2ccn3c(-c4cccc(NC(=O)NCC(F)(F)F)c4)cnc3c2)nc1N [Compound 308] | 0 | 
NC(=O)Nc1cccc(-c2cnc3cc(Cl)ccn23)c1 [Example 119, [3-(7-Chloro-imidazo[1,2-a]pyridin-3-yl)-phenyl]-urea] |  | inhibition at 3 µM: 23%
Nc1cccc(-c2ccn3c(-c4cccc(NC(=O)NCC(F)(F)F)c4)cnc3c2)n1 [Example 106, 1-{3-[7-(6-Amino-pyridin-2-yl)-imidazo[1,2-a]pyridin-3-yl]-phenyl}-3-(2,2,2-trifluoro-ethyl)-urea hydrochloride] |  | IC50 [1]: 0.41 µM
NC1CN(c2ccnc(-c3ccn4c(-c5cccc(NC(=O)NCC(F)(F)F)c5)cnc4c3)n2)C1 [Example 197] |  | IC50 [2]: 2.6 µM
N#Cc1cc(NC(=O)NCC(F)(F)F)cc(-c2cnc3cc(-c4ccnc(C(F)(F)F)n4)ccn23)c1 [Compound 299] |  | inhibition at 1 µM: 17%
CC(C)(C)OC(=O)NCC1CCN(c2ccc(-c3ccn4c(-c5cccc(NC(=O)NCC(F)(F)F)c5)cnc4c3)cn2)CC1 [Compound 318] |  | IC50 [2]: 0.42 µM
CN(C)c1ccnc(-c2ccn3c(-c4cccc(NC(=O)NCC(F)(F)F)c4)cnc3c2)n1 [Example 120, 1-{3-[7-(4-Dimethylamino-pyrimidin-2-yl)-imidazo[1,2-a]pyridin-3-yl]-phenyl}-3-(2,2,2-trifluoro-ethyl)-urea hydrochloride] |  | IC50 [1]: 1.1 µM
O=C(NCC(F)(F)F)Nc1cccc(-c2cnc3cc(-c4nnc(CCN5CCCC5)s4)ccn23)c1 [Example 241] | 4.2 | 
O=C(NCC(F)(F)F)Nc1cc(CO)cc(-c2cnc3cc(-c4ccnc(C(F)(F)F)n4)ccn23)c1 [Compound 295] | 30 | 
O=C(NCC(F)(F)F)Nc1cccc(-c2cnc3cc(-c4nccc(=O)[nH]4)ccn23)c1 [Example 190] |  | inhibition at 3 µM: 35%
Cc1cc(N)nc(-c2ccn3c(-c4cccc(NC(=O)NCC(F)(F)F)c4)cnc3c2)n1 [Example 171] |  | inhibition at 1 µM: 16%
Nc1nc(-c2ccn3c(-c4cccc(NC(=O)NCC(F)(F)F)c4)cnc3c2)ncc1C(=O)O [Compound 277] | 0 | 
Cc1cc2ncc(-c3cccc(NC(=O)NCC(F)(F)F)c3)n2cc1C [Example 77, 1-[3-(6,7-Dimethyl-imidazo[1,2-a]pyridin-3-yl)-phenyl]-3-(2,2,2-trifluoro-ethyl)-urea formate] | 53 | 
COC(=O)c1cnc(-c2ccn3c(-c4cccc(NC(=O)NCC(F)(F)F)c4)cnc3c2)nc1 [Compound 290] |  | inhibition at 1 µM: 16%
O=C(NCC(F)(F)F)Nc1cccc(-c2cnc3cc(-c4ccc(OC5CCCNC5)nn4)ccn23)c1 (stereo not drawn) [Example 131, 1-(3-{7-[6-(Piperidin-3-yloxy)-pyridazin-3-yl]-imidazo[1,2-a]pyridin-3-yl}-phenyl)-3-(2,2,2-trifluoro-ethyl)-urea] | 2.9 | 
O=C(NCC(F)(F)F)Nc1cc(O)cc(-c2cnc3cc(-c4ccnc(C(F)(F)F)n4)ccn23)c1 [Compound 303] | 0 | 
Nc1nc(-c2ccn3c(-c4cc(F)cc(NC(=O)NCC(F)(F)F)c4)cnc3c2)ncc1F [Compound 305] | 6 | 
O=C(NCC(F)(F)F)Nc1cccc(-c2cnc3cc(-c4cccc(CCO)c4)ccn23)c1 [Example 107, 1-(3-{7-[3-(2-Hydroxy-ethyl)-phenyl]-imidazo[1,2-a]pyridin-yl}-phenyl)-3-(2,2,2-trifluoro-ethyl)-urea formate] |  | IC50 [1]: 0.89 µM
NC(=O)c1ccc(-c2ccn3c(-c4cccc(NC(=O)NCC(F)(F)F)c4)cnc3c2)nc1 [Example 207] | 14 | 
Cc1cc(-c2ccn3c(-c4cccc(NC(=O)NCC(F)(F)F)c4)cnc3c2)nnc1Cl [Example 135, 1-{3-[7-(6-Chloro-5-methyl-pyridazin-3-yl)-imidazo[1,2-a]pyridin-3-yl]-phenyl}-3-(2,2,2-trifluoro-ethyl)-urea] |  | IC50 [2]: 0.51 µM

Structure (SMILES) | inhibition at 10 µM [%] | other results
Nc1nc(-c2ccn3c(-c4cccc(NC(=O)NCC(F)(F)F)c4)cnc3c2)ncc1CO [Compound 332] | 0 | 
O=C(NCC(F)(F)F)Nc1cccc(-c2cnc3cc(-c4nccc(N5CCC(O)CC5)n4)ccn23)c1 [Example 109, 1-(3-{7-[4-(4-Hydroxy-piperidin-1-yl)-pyrimidin-2-yl]-imidazo[1,2-a]pyridin-3-yl}-phenyl)-3-(2,2,2-trifluoro-ethyl)-urea] |  | IC50 [2]: 32 µM
Nc1cnc(-c2ccn3c(-c4cccc(NC(=O)NCC(F)(F)F)c4)cnc3c2)nc1Cl [Example 170] |  | inhibition at 3 µM: 14%
COCc1cc(-c2ccn3c(-c4cccc(NC(=O)NCC(F)(F)F)c4)cnc3c2)nc(N)n1 [Compound 335] | 20 | IC50 [2]: 0.74 µM
O=C(NCC(F)(F)F)Nc1cccc(-c2cnc3cc(-c4ccc(OC5CCNCC5)nn4)ccn23)c1 [Example 130, 1-(3-{7-[6-(Piperidin-4-yloxy)-pyridazin-3-yl]-imidazo[1,2-a]pyridin-3-yl}-phenyl)-3-(2,2,2-trifluoro-ethyl)-urea] | 26 | 
Nc1nc(-c2ccn3c(-c4cccc(NC(=O)NCC(F)(F)F)c4)cnc3c2)ccc1C(F)(F)F [Example 231] | 23 | 
CN(C)S(=O)(=O)n1ccnc1-c1ccnc(-c2ccn3c(-c4cccc(NC(=O)NCC(F)(F)F)c4)cnc3c2)n1 [Example 216] | 28 | 
Cc1nnc(-c2ccn3c(-c4cccc(NC(=O)NCC(F)(F)F)c4)cnc3c2)nc1C [Example 118, 1-{3-[7-(5,6-Dimethyl-[1,2,4]triazin-3-yl)-imidazo[1,2-a]pyridin-3-yl]-phenyl}-3-(2,2,2-trifluoro-ethyl)-urea hydrochloride] |  | IC50 [1]: 0.88 µM
O=C(NCC(F)(F)F)Nc1cccc(-c2cnc3cc(-c4nccc(-n5ccnc5)n4)ccn23)c1 [Example 213] | 22 | 
Cc1nnc(-c2ccn3c(-c4cccc(NC(N)=O)c4)cnc3c2)o1 [Compound 328] |  | inhibition at 3 µM: 34%
O=C(NCC(F)(F)F)Nc1cccc(-c2cnc3cc(-c4ncc(C(F)(F)F)cn4)ccn23)c1 [Example 244] |  | inhibition at 3 µM: 17%
O=C(NCC(F)(F)F)Nc1cccc(-c2cnc3cc(-c4ncc(C(=O)O)cn4)ccn23)c1 [Compound 333] |  | inhibition at 1 µM: 0%
O=C(NCC(F)(F)F)Nc1cc(Cl)cc(-c2cnc3cc(-c4ncccn4)ccn23)c1 [Compound 309] |  | IC50 [2]: 2.3 µM
O=C(NCC(F)(F)F)Nc1cccc(-c2cnc3cc(-c4ccnc(C(F)(F)F)n4)ccn23)c1 [Example 199] | 62 | 
Cc1nnc(-c2ccn3c(-c4cccc(NC(=O)NC5CC5)c4)cnc3c2)o1 [Example 157, 1-Cyclopropyl-3-{3-[7-(5-methyl-[1,3,4]oxadiazol-2-yl)-imidazo[1,2-a]pyridin-3-yl]-phenyl}-urea] | 38 | 
CC(C)n1ccnc1C#Cc1ccn2c(-c3cccc(NC(=O)NCC(F)(F)F)c3)cnc2c1 [Compound 266] |  | IC50 [2]: 1.4 µM
COCc1cc(N)nc(-c2ccn3c(-c4cccc(NC(=O)NCC(F)(F)F)c4)cnc3c2)n1 [Compound 324] | 9.4 | 
Cn1ccnc1C#Cc1ccn2c(-c3cccc(NC(=O)NCC(F)(F)F)c3)cnc2c1 [Compound 282] | 23 | IC50 [2]: 2.8 µM
O=C(NCC(F)(F)F)Nc1cccc(-c2cnc3cc(-c4ncc(F)c(NC5CC5)n4)ccn23)c1 [Example 180] | 42 | 
CNc1nc(-c2ccn3c(-c4cccc(NC(=O)NCC(F)(F)F)c4)cnc3c2)ncc1N [Compound 313] | 18 | 
